Experiments:
P2X purinoceptor 7 [1] = molecular target: T1, P2X purinoceptor 7 (Homo sapiens, UniProt Q99572); experiment: (§1) On the day of the experiment, cell membrane preparations were made according to standard published methods. The total assay volume was 100 μl:10 μl compound (10×)+(b) 40 μl tracer (2.5×)+50 μl membrane (2×). The tracer used for the assay was tritiated A-804598. The compound can be prepared as described in the literature. […] The assay was terminated by filtration (GF/B filters pre-soaked with 0.3% PEI) and washed with washing buffer (Tris-HCl 50 mM). The IC50 generated in the binding assay was corrected for tracer concentration and affinity of the tracer to derive at the affinity (Ki) of the test compounds.
T1 sequence (Q99572 whole entry): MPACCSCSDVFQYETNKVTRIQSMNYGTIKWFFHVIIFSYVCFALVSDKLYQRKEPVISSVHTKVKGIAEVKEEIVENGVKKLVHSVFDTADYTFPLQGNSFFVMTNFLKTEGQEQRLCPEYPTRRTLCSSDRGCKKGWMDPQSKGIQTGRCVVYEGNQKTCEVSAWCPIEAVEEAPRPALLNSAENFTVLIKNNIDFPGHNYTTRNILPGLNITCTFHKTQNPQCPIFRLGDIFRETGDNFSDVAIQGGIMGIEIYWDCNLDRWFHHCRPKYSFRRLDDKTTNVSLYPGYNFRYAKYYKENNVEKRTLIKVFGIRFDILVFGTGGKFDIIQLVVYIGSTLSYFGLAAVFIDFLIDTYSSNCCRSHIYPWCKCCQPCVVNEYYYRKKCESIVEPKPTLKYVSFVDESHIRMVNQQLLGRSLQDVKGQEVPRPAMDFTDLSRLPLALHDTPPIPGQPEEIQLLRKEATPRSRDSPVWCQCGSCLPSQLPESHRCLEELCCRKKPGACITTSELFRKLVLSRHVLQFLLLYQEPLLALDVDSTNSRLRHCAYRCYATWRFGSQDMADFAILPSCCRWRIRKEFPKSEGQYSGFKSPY

P2X purinoceptor 7 [2] = molecular target: T2, P2X purinoceptor 7 (Rattus norvegicus, UniProt Q64663); experiment: as §1
T2 sequence (Q64663 whole entry): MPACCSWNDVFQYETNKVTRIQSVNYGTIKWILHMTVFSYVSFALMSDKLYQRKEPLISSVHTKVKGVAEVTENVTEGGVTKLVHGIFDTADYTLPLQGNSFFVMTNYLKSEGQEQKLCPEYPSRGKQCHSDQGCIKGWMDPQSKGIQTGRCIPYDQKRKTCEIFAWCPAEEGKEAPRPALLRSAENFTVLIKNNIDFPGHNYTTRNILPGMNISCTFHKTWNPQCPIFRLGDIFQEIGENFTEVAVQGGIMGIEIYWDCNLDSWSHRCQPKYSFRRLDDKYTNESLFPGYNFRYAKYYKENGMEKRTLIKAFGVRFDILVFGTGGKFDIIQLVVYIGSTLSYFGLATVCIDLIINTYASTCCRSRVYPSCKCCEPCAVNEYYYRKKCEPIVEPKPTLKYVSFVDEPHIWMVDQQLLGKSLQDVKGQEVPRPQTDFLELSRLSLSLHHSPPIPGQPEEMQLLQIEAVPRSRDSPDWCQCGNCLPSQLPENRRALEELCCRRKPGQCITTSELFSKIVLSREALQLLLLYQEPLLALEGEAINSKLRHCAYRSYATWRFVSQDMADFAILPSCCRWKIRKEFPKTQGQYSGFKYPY

IC50 (P2X purinoceptor 7 [1]): 16.5 nM | IC50 (P2X purinoceptor 7 [2]): 10.2 nM
SMILES: Cc1c(C(=O)N2Cc3nnn(C4=NN=CC4)c3CC2C)cccc1C(F)(F)F (configuration not stated)

From ChEMBL document CHEMBL5727794, “P2X7 modulators” (2020)
